For one assay, the target named is T1, EGFR (Homo sapiens, UniProt P00533).
T1 construct: A431 […] cell lysate is stored at −80° C; host or cells: A431 cell lysate
Kind of assay: Assay for modulation of EGFR activity (ELISA). It counts as biochemical. The settings on record: read-out: bio EGFR IC50.

Another assay deals with T2, PDGFR (Homo sapiens, UniProt P09619).
T2 construct: expressed in transfected cells; host or cells: NIH3T3
Put plainly: Assay for modulation of PDGFR activity (ELISA). Format: biochemical. The note with it: read-out: bio PDGFR IC50. On the procedure:
Using the following reagents, supplies, and methods, the ability of the compounds of the invention to modulate the in vitro activity of the PDGFR can be readily determined in an enzyme-linked immunosorbent assay (ELISA).
Monoclonal anti-PDGFR antibody (28D4C10) is stored at −20° C. in 50 mL tubes prior to use.
Lysates from PDGFR-β expressing NIH3T3 cells are obtained and stored at −80° C. in 1 mL aliquots. PDGFR-β expression in eukaryotic cells is well known in the art. Lysates are prepared by the following method. Place carrier dishes in ice trays, and after cooling, remove the media and replace with ice cold PBS. Remove the PBS and repeat. […] Take up lysate with a pipettor and add to a 30 mL centrifuge tube on ice. Vortex the tubes for 30-60 seconds and then centrifuge for 10 minutes at 7000 rpm in a J-20 rotor which has been precooled to below 0° C. Recover the supernatants and combine them in a 250 mL tube and place on ice. Perform protein determination to measure the total quantity of protein per mL of solution. Aliquot the lysate into 1 mL fractions and store at −80° C.
Coat Corning 96 well ELISA plates with 0.5 μg per well 28D4C10 antibody in a volume of 100 μl PBS overnight, at 4° C. and remove unbound antibody, 28D4C10, from wells by inverting plate to remove liquid. Wash 1× with distilled H2O by filling wells. Pat the plate on a paper towel to remove excess liquid.
Add 150 μL of Blocking Buffer to each well. Incubate for 30 minutes at room temperature, with shaking and wash plate 3× with deionized water, then once with TBST. Pat plate on a paper towel to remove excess liquid and bubbles
Dilute lysate in PBS (10 mg lysate/100 μL PBS). Add 100 μL of diluted lysate to each well. Shake at room temperature for 60 min. Wash plate 3× with deionized water, then once with TBST. Pat plate on a paper towel to remove excess liquid and bubbles.
Add 80 μL Kinase Buffer to ELISA plate containing captured PDGFR.
Dilute drugs/extracts 1:10 (unless specified otherwise) in TBS+10% DMSO in 96-well polypropylene plates. (i.e., 10 μL compound+90 μL (TBS+10% DMSO)). Add 10 μL diluted drugs/extracts to ELISA plate. […] Incubate for 30 minutes while shaking at room temperature.
After 30 minutes stop reaction with addition of 10 μL of 200 mM EDTA pH 8.0 for 20 mM final in well. Wash 4× with deionized water, twice with TBST.
Incubate 30-45 minutes at room temperature, with shaking. Wash plate 3× with deionized water, then once with TBST. Pat plate on a paper towel to remove excess liquid and bubbles.
Incubate 30 minutes at room temperature with shaking. Wash plate 3× with deionized water, then once with TBST. Pat plate on a paper towel to remove excess liquid and bubbles.
Add 100 μL of ABTS/H2O2 solution to each well. Incubate 10 to 30 minutes while shaking. Remove any bubbles. If necessary stop reaction with the addition of 100 μL of 0.2M HCl per well
Read assay on Dynatech MR7000 ELISA reader.
For orientation: ELISA stands for enzyme-linked immunosorbent assay.

T1 sequence (P00533 25-1210): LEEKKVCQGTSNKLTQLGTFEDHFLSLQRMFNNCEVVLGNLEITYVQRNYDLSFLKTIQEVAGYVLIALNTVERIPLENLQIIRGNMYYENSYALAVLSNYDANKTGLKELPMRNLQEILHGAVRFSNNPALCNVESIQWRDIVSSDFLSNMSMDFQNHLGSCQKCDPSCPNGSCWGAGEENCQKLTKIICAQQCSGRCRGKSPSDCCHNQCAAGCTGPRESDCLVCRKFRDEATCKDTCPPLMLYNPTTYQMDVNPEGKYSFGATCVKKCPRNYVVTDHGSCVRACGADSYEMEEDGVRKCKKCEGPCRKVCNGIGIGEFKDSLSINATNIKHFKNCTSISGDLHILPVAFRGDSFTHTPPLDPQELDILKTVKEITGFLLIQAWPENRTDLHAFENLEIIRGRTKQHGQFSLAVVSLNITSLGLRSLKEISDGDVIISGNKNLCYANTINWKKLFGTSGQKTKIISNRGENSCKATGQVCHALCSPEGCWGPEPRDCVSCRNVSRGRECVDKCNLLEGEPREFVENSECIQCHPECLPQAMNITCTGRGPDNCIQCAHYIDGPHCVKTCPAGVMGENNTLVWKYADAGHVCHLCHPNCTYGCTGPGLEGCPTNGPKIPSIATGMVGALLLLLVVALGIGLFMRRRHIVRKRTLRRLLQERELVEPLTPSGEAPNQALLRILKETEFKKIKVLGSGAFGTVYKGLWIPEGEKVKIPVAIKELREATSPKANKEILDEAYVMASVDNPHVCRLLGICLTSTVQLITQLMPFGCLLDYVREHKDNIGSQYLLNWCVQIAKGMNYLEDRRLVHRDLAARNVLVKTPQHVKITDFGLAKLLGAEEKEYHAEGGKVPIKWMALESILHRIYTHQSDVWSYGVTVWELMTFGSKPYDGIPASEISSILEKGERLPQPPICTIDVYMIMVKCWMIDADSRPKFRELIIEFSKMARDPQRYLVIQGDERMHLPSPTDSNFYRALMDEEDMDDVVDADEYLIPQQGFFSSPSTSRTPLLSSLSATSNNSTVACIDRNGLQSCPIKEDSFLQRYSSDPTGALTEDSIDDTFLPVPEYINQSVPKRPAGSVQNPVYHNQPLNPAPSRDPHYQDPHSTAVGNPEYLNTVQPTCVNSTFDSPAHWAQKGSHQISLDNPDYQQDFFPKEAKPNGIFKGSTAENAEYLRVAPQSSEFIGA
T2 sequence (P09619 33-1106, species assumed): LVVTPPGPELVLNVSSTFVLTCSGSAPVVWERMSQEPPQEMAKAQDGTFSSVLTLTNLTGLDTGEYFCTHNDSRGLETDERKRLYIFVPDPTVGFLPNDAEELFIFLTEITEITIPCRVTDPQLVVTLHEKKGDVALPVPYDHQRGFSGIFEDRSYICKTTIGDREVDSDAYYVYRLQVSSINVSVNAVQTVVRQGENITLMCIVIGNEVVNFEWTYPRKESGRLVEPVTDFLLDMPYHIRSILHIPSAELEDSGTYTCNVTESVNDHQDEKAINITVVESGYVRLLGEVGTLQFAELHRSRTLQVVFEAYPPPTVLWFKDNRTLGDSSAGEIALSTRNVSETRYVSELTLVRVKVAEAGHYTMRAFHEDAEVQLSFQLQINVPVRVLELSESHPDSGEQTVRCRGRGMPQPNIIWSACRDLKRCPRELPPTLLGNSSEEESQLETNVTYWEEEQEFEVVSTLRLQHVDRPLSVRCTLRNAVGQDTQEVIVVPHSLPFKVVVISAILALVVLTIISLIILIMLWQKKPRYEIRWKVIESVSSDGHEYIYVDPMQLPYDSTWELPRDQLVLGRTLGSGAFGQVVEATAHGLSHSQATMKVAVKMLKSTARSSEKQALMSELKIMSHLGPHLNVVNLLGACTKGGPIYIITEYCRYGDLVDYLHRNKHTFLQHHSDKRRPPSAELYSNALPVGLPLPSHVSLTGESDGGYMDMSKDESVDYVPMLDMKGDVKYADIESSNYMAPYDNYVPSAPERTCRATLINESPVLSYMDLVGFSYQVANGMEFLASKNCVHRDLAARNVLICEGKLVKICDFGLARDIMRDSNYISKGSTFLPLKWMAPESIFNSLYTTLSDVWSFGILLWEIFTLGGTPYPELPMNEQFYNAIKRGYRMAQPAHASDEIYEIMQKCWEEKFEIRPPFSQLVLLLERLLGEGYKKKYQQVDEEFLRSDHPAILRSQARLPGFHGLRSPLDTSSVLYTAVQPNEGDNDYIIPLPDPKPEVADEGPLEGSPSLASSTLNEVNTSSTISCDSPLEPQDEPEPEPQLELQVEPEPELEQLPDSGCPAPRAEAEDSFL

For `CC(C)c1cc(CCC(=O)O)c(/C=C2\C(=O)Nc3ncnc(Nc4ccc(F)c(Cl)c4)c32)[nH]1` [Formula 27], the IC50 on EGFR is 0.15 µM; on PDGFR, over 20 µM.
The matching figures for `Cc1c(C(=O)N2CCOCC2)c[nH]c1/C=C1\C(=O)Nc2ncnc(Nc3ccc(F)c(Cl)c3)c21` [Formula 31]: 0.21 µM and over 20 µM.
The matching figures for `Cc1cc(C(=O)N2CCOCC2)[nH]c1/C=C1\C(=O)N(C)c2ncnc(Nc3ccc(F)c(Cl)c3)c21` [Formula 34]: over 20 µM and over 20 µM.
On to `Cc1cc(C(=O)N2CCN(C)CC2)[nH]c1/C=C1\C(=O)N(C)c2ncnc(Nc3ccc(F)c(Cl)c3)c21` [Formula 36], for which the IC50 at EGFR was 17.4 µM; at PDGFR, over 20 µM.
On the same counts, the results for `Cc1cc(C=C2C(=O)Nc3ncnc(Nc4ccc(F)c(Cl)c4)c32)[nH]c1C(=O)N1CCOCC1` [Formula 37] are 0.24 µM and over 20 µM.

Usually IC50 stands for the concentration needed to halve the response being measured.

The values are drawn from US6908930B2, “4-substituted 7-AZA-indolin-2-ones and their use as protein kinase inhibitors” (Sugen, Inc., priority 1999, dated 2005).
